Laboratory results from US6602690B2, “Process for production of dihomo-γ-linolenic acid and lipid containing same” (Suntory, Ltd., priority 1991, dated 2003).

Legend:
[1] = test system: Mortierella alpina IFO 8568; experiment: Culturing of Mortierella alpina IFO 8568 with sesamin-containing soybean oil (Example 5, Comparative Example); assay type: cell-based; details: strain IFO 8568; soybean oil with 15% by weight sesamin, 0.5 ml at start and after 24 hours per 100 ml; 28° C., 7 days
Description: (§1) 100 ml each of a medium (pH 6.0) containing 4% glucose and 1% yeast extract was put into 4 Erlenmeyer flasks having a volume of 500 ml, and 0.5 ml each of soybean oil in which sesamin (2,6-bis-(3,4-methylenedioxyphenyl)-cis-3,7-dioxabicyclo[3,3,0]octane) had been dissolved to a sesamin concentration of 15% by weight was added to 2 flasks, and 0.5 ml each of soybean oil was added 2 other flasks, and the flasks were sterilized at 120° C. for 20 minutes.
(§2) Mortierella alpina IFO 8568 (Comparative Example) was added to two different media, and the mutant SAM 1860 (Example) was add to other different media.
(§3) The strains were cultured on a reciprocating shaker (110 rpm) at 28° C. for 7 days. After 24 hours from the start of culturing, 0.5 ml each of the sesamin-containing soybean oil was added to the media to which the sesamin-containing soybean oil had been added, and 0.5 ml each of soybean oil was added to the media to which soybean oil had been added. After culturing, a fatty acid methyl ester preparation was analyzed by gas chromatography as described in Example 1.

mutant SAM 1860 = experiment: Culturing of mutant SAM 1860 with sesamin-containing soybean oil (Example 5); assay type: cell-based, Mortierella alpina
Description: as §1, §2, §3

[2] = test system: mutant Mortierella alpina SAM 1860; experiment: Culturing of mutant Mortierella alpina SAM 1860 in medium with added substrate (Example 3), fatty acid methyl esters analysed by gas chromatography; assay type: cell-based; details: 0.5% additive in medium with 2% glucose, 1% yeast extract, 0.2% Tween 20; 28° C., 7 days
Description: These cells were extracted with a solvent of one phase chloroform/methanol/water according to Bligh & Dyer extraction method to obtain total lipids in an amount of 505 mg from the strain IFO 8568, and an amount of 530 mg from the mutant SAM 1860. These lipids were subjected to methyl-esterification using anhydrous methanol/hydrochloric acid (95:5) at 50° C. for 3 hours, and the resulting fatty acid methyl esters were extracted to obtain 417 mg of a total fatty acid methyl ester preparation from the strain IFO 8568, and 454 mg of a total fatty acid preparation from the mutant SAM 1860. The fatty acid methyl ester preparations were analyzed by gas chromatography.
20 ml of a medium (pH 6.0) containing 2% glucose; 1% yeast extract; 0.2% Tween 20; and 0.5% hydrocarbon, sodium salt of fatty acid, fatty acid ester, or fat or oil, was put into a 100 ml Erlenmeyer flask, and autoclaved at 120° C. for 20 minutes.
A mutant Mortierella alpina SAM 1860 was added to each flask, and cultured on a reciprocating shaker (110 rpm) at 28° C. for 7 days. For the resulting cell preparations, fatty acid methyl esters were analyzed by gas chromatography as described in Example 1.

[3] = Example 5 cultures (Table 4), strain not specified

Which “Ratio of DGLA:ARA” value [1] does the source give for c1cc2c(cc1[C@H]1OC[C@H]3[C@@H]1CO[C@@H]3c1ccc3c(c1)OCO3)OCO2 [sesamin, 2,6-bis-(3,4-methylenedioxyphenyl)-cis-3,7-dioxabicyclo[3,3,0]octane] here?
Its value is no more than 1.17.

And the “effect of addition on the amount of dry cells” value (mutant SAM 1860; [3])?
Its value is “did not effect”.

And the “effect of addition on the amount of total fatty acids produced” value (mutant SAM 1860; [3])?
The value was “did not effect”.

What about the “Ratio of DGLA:ARA” value (mutant SAM 1860; mutant SAM 1860, soybean oil with 15% by weight sesamin, 0.5 ml at start and after 24 hours per 100 ml, 28° C., 7 days) of the same molecule?
Its value is 12.3.

With CCCCCCCCCCCCCCCC [Hexadecane] as the molecule, how does the ARA [2] read?
Its ARA is 0.55 g/L.

What about the DGLA [2] of the same molecule?
The DGLA was 1.89 g/L.

And the Dry cells [2]?
Its Dry cells is 18.1 g/L.

Which ARA [2] does the source give for CCCCC/C=C\C/C=C\CCCCCCCC(=O)[O-].[Na+] [Sodium linoleate] here?
Its ARA is 0.49 g/L.

What about the DGLA [2] of the same molecule?
Its DGLA is 1.40 g/L.

And the Dry cells [2]?
Its Dry cells is 14.8 g/L.

Which ARA [2] does the source give for CCCCCCCC/C=C\CCCCCCCC(=O)[O-].[Na+] [Sodium oleate] here?
The ARA was 0.48 g/L.

And the DGLA [2]?
The DGLA was 1.40 g/L.

What about the Dry cells [2] of the same molecule?
The Dry cells was 15.5 g/L.

What does the source list for CCCCCCCCCCCCCCCCCC [Octadecane]?
ARA [2]: 0.50 g/L; DGLA [2]: 1.80 g/L; Dry cells [2]: 18.3 g/L

For CCCCC/C=C\C/C=C\CCCCCCCC(=O)OC [Methyl linoleate], which ARA [2] is on record?
The ARA was 0.60 g/L.

What about the DGLA [2] of the same molecule?
The DGLA was 2.15 g/L.

And the Dry cells [2]?
Its Dry cells is 18.7 g/L.

How did the ARA [2] turn out when CCCCCCCC/C=C\CCCCCCCC(=O)OC [Methyl oleate] was run?
The ARA was 0.56 g/L.

What about the DGLA [2] of the same molecule?
Its DGLA is 1.99 g/L.

And the Dry cells [2]?
Its Dry cells is 18.1 g/L.
